pKi: −log10 of the molar value.
Target: T1, h-GABAA α5β2γ1 (Homo sapiens, UniProt P31644+Q8N1C3)
T1 construct: expressed in transfected cells; host or cells: HEK293F cells (ThermoFisher R79007), membranes
T1 sequence (P31644 32-462): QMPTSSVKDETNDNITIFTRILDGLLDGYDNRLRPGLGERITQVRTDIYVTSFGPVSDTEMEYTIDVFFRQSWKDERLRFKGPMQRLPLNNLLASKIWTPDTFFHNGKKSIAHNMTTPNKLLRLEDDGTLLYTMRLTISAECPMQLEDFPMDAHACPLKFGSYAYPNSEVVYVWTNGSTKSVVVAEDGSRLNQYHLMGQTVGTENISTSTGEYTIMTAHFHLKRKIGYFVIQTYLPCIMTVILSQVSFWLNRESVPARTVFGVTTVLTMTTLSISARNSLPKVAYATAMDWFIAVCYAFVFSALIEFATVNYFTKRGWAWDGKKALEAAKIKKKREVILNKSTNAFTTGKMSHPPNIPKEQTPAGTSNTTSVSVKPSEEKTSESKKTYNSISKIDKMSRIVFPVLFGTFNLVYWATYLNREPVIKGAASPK
T1 sequence (P47870 25-512 partner limits assumed): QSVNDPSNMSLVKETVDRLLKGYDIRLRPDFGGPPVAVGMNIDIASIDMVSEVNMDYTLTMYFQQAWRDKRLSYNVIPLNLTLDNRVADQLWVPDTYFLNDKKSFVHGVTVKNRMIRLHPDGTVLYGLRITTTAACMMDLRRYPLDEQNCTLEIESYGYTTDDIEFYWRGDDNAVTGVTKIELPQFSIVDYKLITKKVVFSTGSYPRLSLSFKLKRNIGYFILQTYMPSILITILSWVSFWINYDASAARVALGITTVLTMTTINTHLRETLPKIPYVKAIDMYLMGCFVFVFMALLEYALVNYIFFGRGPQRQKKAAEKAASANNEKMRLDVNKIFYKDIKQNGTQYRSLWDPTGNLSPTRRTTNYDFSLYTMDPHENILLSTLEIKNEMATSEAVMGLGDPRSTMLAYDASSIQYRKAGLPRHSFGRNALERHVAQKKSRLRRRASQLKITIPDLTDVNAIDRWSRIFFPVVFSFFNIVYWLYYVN
T1 sequence (Q8N1C3 36-465): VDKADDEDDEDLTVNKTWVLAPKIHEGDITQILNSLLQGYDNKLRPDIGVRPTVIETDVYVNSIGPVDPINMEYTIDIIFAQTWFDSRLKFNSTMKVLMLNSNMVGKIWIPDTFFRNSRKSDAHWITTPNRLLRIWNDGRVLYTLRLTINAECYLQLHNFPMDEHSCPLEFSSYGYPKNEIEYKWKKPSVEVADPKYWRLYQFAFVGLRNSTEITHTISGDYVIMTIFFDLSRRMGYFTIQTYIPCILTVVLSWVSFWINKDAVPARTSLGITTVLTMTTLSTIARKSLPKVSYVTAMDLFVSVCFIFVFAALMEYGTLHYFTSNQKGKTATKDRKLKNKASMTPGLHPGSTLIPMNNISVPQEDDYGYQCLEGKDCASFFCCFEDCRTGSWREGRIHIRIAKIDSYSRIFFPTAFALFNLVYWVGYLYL
Test: Radioligand binding assay, [3H]RO7239181 competition, HEK293F membranes
Method: The affinity of compounds at GABAA γ1 subunit-containing receptors was measured by competition for [^3H]RO7239181 (67.3 Ci/mmol; Roche) binding to membranes from HEK293F cells (ThermoFisher R79007) expressing human (transiently transfected) receptors of composition […], α2β2γ1, α1β2γ1. For better protein expression of the α2 subunit-containing receptors, the 28 amino acid long signal peptide (Met1 to Ala28) of the human GABAA α2 subunit was substituted by the 31 amino acid long signal peptide (Met1 to Ser31) of human GABAA α5 subunit.
Harvested pellets from HEK293F cells expressing the different GABAA receptor subtypes were resuspended in Mannitol Buffer pH 7.2-7.4 (Mannitol 0.29M, Triethylamine 10 mM, Acetic acid 10 mM, EDTA 1 mM plus protease inhibitors (20 tablets Complete, Roche Diagnostics Cat. No. 05 056 489 001 per liter)), washed two times and then resuspended at 1:10 to 1:15 dilution in the same buffer. Cell disruption was performed by stirring the suspension in a Parr vessel #4637 at 435 psi for 15 minutes, and then the suspensions were centrifuged at 1000×g for 15 minutes at 4° C. (Beckman Avanti J-HC; rotor JS-4.2). The supernatant (S1) was transferred in a 21 Schott flask and the pellet (P1) was resuspended with Mannitol Buffer up to 175 ml. The resuspended pellet was transferred into a 250 ml Corning centrifugal beaker and centrifuged at 1500×g for 10 minutes at 4° C. (Beckman Avanti J-HC; rotor JS-4.2). The supernatant (S1) was then transferred in the 21 Schott flask and the pellet was discarded. The supernatants (S1) were centrifuged in 500 ml Beckman polypropylene centrifugal beaker at 15′000×g for 30 minutes at 4° C. (Beckman Avanti J-20 XP; rotor JLA-10.500). The pellet (P2) was resuspended with Mannitol Buffer 1:1 and frozen at −80° C. The supernatant (S2) was centrifuged in 100 ml Beckman polypropylene centrifugal tubes at 48000×g for 50 minutes at 4° C. (Beckman Avanti J-20 XP; rotor JA-18). The supernatant (S3) was discarded and the pellet (P3) was resuspended with 1:1 Mannitol Buffer. The P2 and P3 protein concentration was determined with the BIORAD Standard assay method with bovine serum albumin as standard and measured on the NANO-Drop 1000. The membrane suspension was aliquots (500 μl per tube) and stored at −80° C. until required. Membrane homogenates were resuspended and polytronised (Polytron PT1200E Kinematica AG) in Potassium Phosphate 10 mM, KCl 100 mM binding buffer at pH 7.4 to a final assay concentration determined with a previous experiment.
Radioligand binding assays were carried out in a volume of 200 μL (96-well plates) which contained 100 μL of cell membranes, [^3H]RO7239181 at a concentration of 1.5 nM (α5β2γ1) or 20-30 nM (α1β2γ1, α2β2γ1) and the test compound in the range of [0.3-10000]×10^−9 M. Nonspecific binding was defined by 10×10^−6 (α5β2γ1) and 30×10^−6 M RO7235136 and typically represented less than 5% (α5β2γ1) and less than 20% (α1β2γ1, α2β2γ1) of the total binding. Assays were incubated to equilibrium for 1 hour at 4° C. and then, membranes were filtered onto unifilter (96-well white microplate with bonded GF/C filters preincubated 20-50 minutes in 0.3% Polyethylenimine) with a Filtermate 196 harvester (Packard BioScience) and washed 4 times with cold Potassium Phosphate 10 mM pH 7.4, KCl 100 mM binding buffer. After drying, filter-retained radioactivity was detected by liquid scintillation counting. Ki values were calculated using Excel-Fit (Microsoft) and are the means of two determinations.

Fc1cccc(F)c1C1=NCc2nncn2-c2ccc(C(F)F)c(Cl)c21 [Example 23, 7-chloro-8-(difluoromethyl)-6-(2,6-difluorophenyl)-4H-[1,2,4]triazolo[4,3-a][1,4]benzodiazepine]
pKi: 8.24

Cc1nnc2n1-c1ccc(Br)c(Cl)c1C(c1ncccc1F)=NC2 [Example 24, 8-bromo-7-chloro-6-(3-fluoro-2-pyridyl)-1-methyl-4H-[1,2,4]triazolo[4,3-a][1,4]benzodiazepine]
pKi: 8.46

Cc1nnc2n1-c1ccc(C(F)F)c(Cl)c1C(c1c(F)cccc1F)=NC2 [Example 25, 7-chloro-8-(difluoromethyl)-6-(2,6-difluorophenyl)-1-methyl-4H-[1,2,4]triazolo[4,3-a][1,4]benzodiazepine]
pKi: 8.36

O=c1[nH]nc2n1-c1ccc(Br)c(Cl)c1C(c1ccccc1F)=NC2 [Example 26, 8-bromo-7-chloro-6-(2-fluorophenyl)-2,4-dihydro-[1,2,4]triazolo[4,3-a][1,4]benzodiazepin-1-one]
pKi: 8.64

Fc1ccccc1C1=NCc2nnc(-c3cccnn3)n2-c2ccc(C(F)(F)F)c(Cl)c21 [Example 27, 7-chloro-6-(2-fluorophenyl)-1-pyridazin-3-yl-8-(trifluoromethyl)-4H-[1,2,4]triazolo[4,3-a][1,4]benzodiazepine]
pKi: 8.20

Cn1cc(-c2nnc3n2-c2ccc(Cl)c(Cl)c2C(c2c(F)cccc2F)=NC3)cn1 [Example 28, 7,8-dichloro-6-(2,6-difluorophenyl)-1-(1-methylpyrazol-4-yl)-4H-[1,2,4]triazolo[4,3-a][1,4]benzodiazepine]
pKi: 8.85

Fc1cccnc1C1=NCc2nncn2-c2ccc(Br)c(Cl)c21 [Example 29, 8-bromo-7-chloro-6-(3-fluoro-2-pyridyl)-4H-[1,2,4]triazolo[4,3-a][1,4]benzodiazepine]
pKi: 8.14

OCc1nnc2n1-c1ccc(Br)c(Cl)c1C(c1c(F)cccc1F)=NC2 [Example 33, [8-bromo-7-chloro-6-(2,6-difluorophenyl)-4H-[1,2,4]triazolo[4,3-a][1,4]benzodiazepin-1-yl]methanol]
pKi: 8.82

Fc1cccc(F)c1C1=NCc2nncn2-c2ccc(I)c(Cl)c21 [Example 34, 7-chloro-6-(2,6-difluorophenyl)-8-iodo-4H-[1,2,4]triazolo[4,3-a][1,4]benzodiazepine]
pKi: 9.52

Cl.NCc1nnc2n1-c1ccc(Br)c(Cl)c1C(c1c(F)cccc1F)=NC2 [Example 36, [8-bromo-7-chloro-6-(2,6-difluorophenyl)-4H-[1,2,4]triazolo[4,3-a][1,4]benzodiazepin-1-yl]methanamine hydrochloride]
pKi: 8.74

Fc1cccc(F)c1C1=NCc2nncn2-c2ccc(C(F)(F)F)c(Cl)c21 [Example 37, 7-chloro-6-(2,6-difluorophenyl)-8-(trifluoromethyl)-4H-[1,2,4]triazolo[4,3-a][1,4]benzodiazepine]
pKi: 8.68

Fc1cccc(F)c1C1=NCc2nnc(-c3cccnn3)n2-c2ccc(C(F)(F)F)c(Cl)c21 [Example 38, 7-chloro-6-(2,6-difluorophenyl)-1-pyridazin-3-yl-8-(trifluoromethyl)-4H-[1,2,4]triazolo[4,3-a][1,4]benzodiazepine]
pKi: 8.72

Fc1cccc(F)c1C1=NCc2nnc(-c3cccnn3)n2-c2ccc(I)c(Cl)c21 [Example 39, 7-chloro-6-(2,6-difluorophenyl)-8-iodo-1-pyridazin-3-yl-4H-[1,2,4]triazolo[4,3-a][1,4]benzodiazepine]
pKi: 9.10

Cc1nnc2n1-c1ccc(C(F)(F)F)c(Cl)c1C(c1c(F)cccc1F)=NC2 [Example 40, 7-chloro-6-(2,6-difluorophenyl)-1-methyl-8-(trifluoromethyl)-4H-[1,2,4]triazolo[4,3-a][1,4]benzodiazepine]
pKi: 8.72

Cc1nnc2n1-c1ccc(I)c(Cl)c1C(c1c(F)cccc1F)=NC2 [Example 41, 7-chloro-6-(2,6-difluorophenyl)-8-iodo-1-methyl-4H-[1,2,4]triazolo[4,3-a][1,4]benzodiazepine]
pKi: 9.10

Fc1cccc(F)c1C1=NCc2nnc(-c3cccnn3)n2-c2ccc(Br)c(Br)c21 [Example 42, 7,8-dibromo-6-(2,6-difluorophenyl)-1-pyridazin-3-yl-4H-[1,2,4]triazolo[4,3-a][1,4]benzodiazepine]
pKi: 9.05

Fc1cccc(F)c1C1=NCc2nnc(-c3ccncn3)n2-c2ccc(Br)c(Br)c21 [Example 43, 7,8-dibromo-6-(2,6-difluorophenyl)-1-pyrimidin-4-yl-4H-[1,2,4]triazolo[4,3-a][1,4]benzodiazepine]
pKi: 8.85

Clc1cccnc1C1=NCc2nnc(-c3ccncn3)n2-c2ccc(Br)c(Cl)c21 [Example 44, 8-bromo-7-chloro-6-(3-chloro-2-pyridyl)-1-pyrimidin-4-yl-4H-[1,2,4]triazolo[4,3-a][1,4]benzodiazepine]
pKi: 8.85

Fc1cccnc1C1=NCc2nnc(-c3cccnn3)n2-c2ccc(Br)c(Cl)c21 [Example 45, 8-bromo-7-chloro-6-(3-fluoro-2-pyridyl)-1-pyridazin-3-yl-4H-[1,2,4]triazolo[4,3-a][1,4]benzodiazepine]
pKi: 8.52

Fc1cccnc1C1=NCc2nnc(-c3ccncn3)n2-c2ccc(Br)c(Cl)c21 [Example 46, 8-bromo-7-chloro-6-(3-fluoro-2-pyridyl)-1-pyrimidin-4-yl-4H-[1,2,4]triazolo[4,3-a][1,4]benzodiazepine]
pKi: 8.41

Clc1cccnc1C1=NCc2nnc(-c3cccnn3)n2-c2ccc(Br)c(Cl)c21 [Example 47, 8-bromo-7-chloro-6-(3-chloro-2-pyridyl)-1-pyridazin-3-yl-4H-[1,2,4]triazolo[4,3-a][1,4]benzodiazepine]
pKi: 8.89

— patent publication US20230141603A1, “BENZODIAZEPINE DERIVATIVES AS GABA A GAMMA1 PAM” (Hoffmann-La Roche Inc., priority 2021, published 2023)
